Reference: patent US7268152B2, “Glucocorticoid mimetics, methods of making them, pharmaceutical compositions, and uses thereof” (Boehringer Ingelheim Pharmaceuticals, Inc., priority 2002, dated 2007)

Target: T1, human glucocorticoid receptor (GR) complex (Homo sapiens, UniProt P04150)
T1 construct: made in house; host or cells: insect expression system (baculovirus lysate)
T1 sequence (P04150 1-777): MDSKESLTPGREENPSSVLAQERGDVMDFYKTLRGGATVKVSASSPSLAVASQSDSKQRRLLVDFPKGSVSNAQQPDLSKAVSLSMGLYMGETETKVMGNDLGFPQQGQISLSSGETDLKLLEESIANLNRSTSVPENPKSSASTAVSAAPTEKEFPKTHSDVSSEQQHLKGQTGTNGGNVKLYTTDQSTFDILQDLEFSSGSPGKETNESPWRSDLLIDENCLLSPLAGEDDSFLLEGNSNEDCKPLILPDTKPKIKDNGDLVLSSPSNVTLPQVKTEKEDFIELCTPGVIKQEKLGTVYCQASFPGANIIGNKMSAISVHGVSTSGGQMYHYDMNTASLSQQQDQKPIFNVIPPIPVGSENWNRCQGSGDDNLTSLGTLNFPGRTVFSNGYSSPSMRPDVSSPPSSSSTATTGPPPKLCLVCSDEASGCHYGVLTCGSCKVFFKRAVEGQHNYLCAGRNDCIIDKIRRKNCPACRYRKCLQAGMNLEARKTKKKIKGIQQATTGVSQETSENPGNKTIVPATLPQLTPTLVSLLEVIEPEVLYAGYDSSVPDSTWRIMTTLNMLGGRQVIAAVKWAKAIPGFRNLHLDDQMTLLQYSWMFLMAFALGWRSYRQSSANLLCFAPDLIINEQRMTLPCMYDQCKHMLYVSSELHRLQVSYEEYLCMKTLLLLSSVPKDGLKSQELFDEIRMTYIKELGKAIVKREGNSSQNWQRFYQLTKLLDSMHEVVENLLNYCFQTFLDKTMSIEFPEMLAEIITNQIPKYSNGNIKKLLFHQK
Assay: Glucocorticoid receptor competitive binding assay (fluorescence polarization)
Conditions: competition with TAMRA-labeled dexamethasone
Experimental: Compounds of the invention were evaluated for binding to the steroid receptor by a fluorescence polarization competitive binding assay. Detailed descriptions for preparation of recombinant glucocorticoid receptor (GR) complex used in the assay is described in U.S. provisional application No. 60/291,877, filed May 18, 2001, and incorporated herein by reference in its entirety. Preparation of the tetramethyl rhodamine (TAMRA)-labeled dexamethasone probe was accomplished using a standard literature procedure (M. Pons et al., J. Steroid Biochem., 1985, 22, pp. 267-273).
A. Glucocorticoid Receptor Competitive Binding Assay
Step 1. Characterization of the Fluorescent Probe
The wavelengths for maximum excitation and emission of the fluorescent probe should first be measured. An example of such a probe is rhodamine (TAMRA)-labeled dexamethasone.
The affinity of the probe for the steroid receptor was then determined in a titration experiment. The fluorescence polarization value of the probe in assay buffer was measured on an SLM-8100 fluorometer using the excitation and emission maximum values described above. Aliquots of expression vector lysate were added and fluorescence polarization was measured after each addition until no further change in polarization value was observed. Non-linear least squares regression analysis was used to calculate the dissociation constant of the probe from the polarization values obtained for lysate binding to the probe.
Step 2. Screeningfor Inhibitors of Probe Binding
This assay uses fluorescence polarization (FP) to quantitate the ability of test compounds to compete with tetramethyl rhodamine (TAMRA)-labeled dexamethasone for binding to a human glucocorticoid receptor (GR) complex prepared from an insect expression system. The assay buffer was: 10 mM TES, 50 mM KCl, 20 mM Na2MoO4.2H2O, 1.5 mM EDTA, 0.04% w/v CHAPS, 10% v/v glycerol, 1 mM dithiothreitol, pH 7.4. Test compounds were dissolved to 1 mM in neat DMSO and then further diluted to 10×assay concentration in assay buffer supplemented with 10% v/v DMSO. Test compounds were serially diluted at 10×assay concentrations in 10% DMSO-containing buffer in 96-well polypropylene plates. Binding reaction mixtures were prepared in 96-well black Dynex microtiter plates by sequential addition of the following assay components to each well: […] of 10×test compound solution, 85 μL of GR-containing baculovirus lysate diluted 1:170 in assay buffer, and 50 μL of 15 nM TAMRA-labeled dexamethasone. Positive controls were reaction mixtures containing no test compound; negative controls (blanks) were reaction mixtures containing 0.7 μM to 2 μM dexamethasone. The binding reactions were incubated for 1 hour at room temperature and then read for fluorescence polarization in the LJL Analyst set to 550 nm excitation and 580 nm emission, with the Rhodamine 561 dichroic mirror installed. IC50 values were determined by iterative non-linear curve fitting of the FP signal data to a 4-parameter logistic equation.

IC50, ≤ 100 nM:
CC(C)(CC(O)(Cc1ccc(O)cc1)C(F)(F)F)c1cc(F)ccc1O (stereo not drawn) [4-Fluoro-2-[4,4,4-trifluoro-3-hydroxy-3-(4-hydroxybenzyl)-1,1-dimethylbutyl]phenol]
COc1ccc(F)cc1C(C)(C)CC(O)(Cc1ccccc1Cl)C(F)(F)F (stereo not drawn) [2-(2-Chlorobenzyl)-1,1,1-trifluoro-4-(5-fluoro-2-methoxyphenyl)-4-methylpentan-2-ol]
COc1ccc(F)cc1C(C)(C)CC(O)(Cc1ccc(Cl)cc1Cl)C(F)(F)F (stereo not drawn) [2-(2,4-Dichlorobenzyl)-1,1,1-trifluoro-4-(5-fluoro-2-methoxyphenyl)-4-methylpentan-2-ol]
CC(C)(CC(O)(Cc1ccc(Cl)c(Cl)c1)C(F)(F)F)c1ccccc1 (stereo not drawn) [2-(3,4-Dichlorobenzyl)-1,1,1-trifluoro-4-methyl-4-phenylpentan-2-ol]
COc1ccc(F)cc1C(C)(C)CC(O)(Cc1c(C)ccc2ccccc12)C(F)(F)F (stereo not drawn) [1,1,1-Trifluoro-4-(5-fluoro-2-methoxyphenyl)-4-methyl-2-(2-methylnaphthalen-1-ylmethyl)pentan-2-ol]
CC(C)(CC(O)(Cc1cc(Cl)cc(Cl)c1)C(F)(F)F)c1ccccc1 (stereo not drawn) [2-(3,5-Dichlorobenzyl)-1,1,1-trifluoro-4-methyl-4-phenylpentan-2-ol]
CC(C)(CC(O)(Cc1ccccc1)C(F)(F)F)c1ccccc1 (stereo not drawn) [2-Benzyl-1,1,1-trifluoro-4-methyl-4-phenylpentan-2-ol]
CC(C)(CC(O)(Cc1cc(C(F)(F)F)cc(Cl)c1F)C(F)(F)F)c1cccc(Cl)c1 (stereo not drawn) [2-(3-Chloro-2-fluoro-5-trifluoromethylbenzyl)-4-(3-chlorophenyl)-1,1,1-trifluoro-4-methylpentan-2-ol]
CC(C)(CC(O)(Cc1cc(F)c(F)c(F)c1)C(F)(F)F)c1cc(F)ccc1O (stereo not drawn) [4-Fluoro-2-[4,4,4-trifluoro-3-hydroxy-1,1-dimethyl-3-(3,4,5-trifluorobenzyl)butyl]phenol]
CC(C)(CC(O)(Cc1ccc(Cl)c(Cl)c1)C(F)(F)F)c1cccc(Cl)c1 (stereo not drawn) [4-(3-Chlorophenyl)-2-(3,4-dichlorobenzyl)-1,1,1-trifluoro-4-methylpentan-2-ol]
COc1ccc(F)cc1C(C)(C)CC(O)(Cc1cccc(C(F)(F)F)c1F)C(F)(F)F (stereo not drawn) [1,1,1-Trifluoro-4-(5-fluoro-2-methoxyphenyl)-2-(2-fluoro-3-trifluoromethylbenzyl)-4-methylpentan-2-ol]
CC(C)(CC(O)(Cc1cc(C(F)(F)F)cc(Cl)c1F)C(F)(F)F)c1cc(F)ccc1O (stereo not drawn) [2-[3-(3-Chloro-2-fluoro-5-trifluoromethylbenzyl)-4,4,4-trifluoro-3-hydroxy-1,1-dimethylbutyl]-4-fluorophenol]
COc1ccc(F)cc1C(C)(C)CC(O)(Cc1ccccc1Br)C(F)(F)F (stereo not drawn) [2-(2-Bromobenzyl)-1,1,1-trifluoro-4-(5-fluoro-2-methoxyphenyl)-4-methylpentan-2-ol]
COc1ccc(F)cc1C(C)(C)CC(O)(Cc1cc(Cl)cc(Cl)c1)C(F)(F)F (stereo not drawn) [2-(3,5-Dichlorobenzyl)-1,1,1-trifluoro-4-(5-fluoro-2-methoxyphenyl)-4-methylpentan-2-ol]
COc1ccc(F)cc1C(C)(C)CC(O)(Cc1cc(F)cc(F)c1)C(F)(F)F (stereo not drawn) [2-(3,5-Difluorobenzyl)-1,1,1-trifluoro-4-(5-fluoro-2-methoxyphenyl)-4-methylpentan-2-ol]
Cc1cccc(CC(O)(CC(C)(C)c2cc(F)ccc2O)C(F)(F)F)c1 (stereo not drawn) [4-Fluoro-2-[4,4,4-trifluoro-3-hydroxy-1,1-dimethyl-3-(3-methylbenzyl)butyl]phenol]
COc1ccc(F)cc1C(C)(C)CC(O)(Cc1ccc(C#N)cc1)C(F)(F)F (stereo not drawn) [4-[4-(5-Fluoro-2-methoxyphenyl)-2-hydroxy-4-methyl-2-trifluoromethylpentyl]benzonitrile]
COc1ccc(F)cc1C(C)(C)CC(O)(Cc1cc(C(F)(F)F)cc(C(F)(F)F)c1)C(F)(F)F (stereo not drawn) [2-(3,5-Bis-trifluoromethylbenzyl)-1,1,1-trifluoro-4-(5-fluoro-2-methoxyphenyl)-4-methylpentan-2-ol]
CC(C)(CC(O)(Cc1cc(C(F)(F)F)cc(C(F)(F)F)c1)C(F)(F)F)c1cc(F)ccc1O (stereo not drawn) [2-[3-(3,5-Bis-trifluoromethylbenzyl)-4,4,4-trifluoro-3-hydroxy-1,1-dimethylbutyl]-4-fluorophenol]
COc1ccc(F)cc1C(C)(C)CC(O)(Cc1cc(C(F)(F)F)ccc1F)C(F)(F)F (stereo not drawn) [1,1,1-Trifluoro-4-(5-fluoro-2-methoxyphenyl)-2-(2-fluoro-5-trifluoromethylbenzyl)-4-methylpentan-2-ol]
CC(C)(CC(O)(Cc1cc(F)cc(F)c1)C(F)(F)F)c1cc(F)ccc1O (stereo not drawn) [2-[3-(3,5-Difluorobenzyl)-4,4,4-trifluoro-3-hydroxy-1,1-dimethylbutyl]-4-fluorophenol]
COc1ccc(F)cc1C(C)(C)CC(O)(Cc1cc(Cl)ccc1F)C(F)(F)F (stereo not drawn) [2-(5-Chloro-2-fluorobenzyl)-1,1,1-trifluoro-4-(5-fluoro-2-methoxyphenyl)-4-methylpentan-2-ol]
COc1ccccc1C(C)(C)CC(O)(Cc1cc(C)cc(C)c1)C(F)(F)F (stereo not drawn) [2-(3,5-Dimethylbenzyl)-1,1,1-tri fluoro-4-(2-methoxyphenyl)-4-methylpentan-2-ol]
CC(C)(CC(O)(Cc1cc(C(F)(F)F)cc(Cl)c1F)C(F)(F)F)c1ccc(F)cc1 (stereo not drawn) [2-(3-Chloro-2-fluoro-5-trifluoromethylbenzyl)-1,1,1-trifluoro-4-(4-fluorophenyl)-4-methylpentan-2-ol]
COc1ccc(F)cc1C(C)(C)CC(O)(Cc1cccc(Br)c1)C(F)(F)F (stereo not drawn) [2-(3-Bromobenzyl)-1,1,1-trifluoro-4-(5-fluoro-2-methoxyphenyl)-4-methylpentan-2-ol]
CC(C)(CC(O)(Cc1ccc(-c2ccccc2)cc1)C(F)(F)F)c1cc(F)ccc1O (stereo not drawn) [2-(3-Biphenyl-4-ylmethyl-4,4,4-trifluoro-3-hydroxy-1,1-dimethylbutyl)-4-fluorophenol]
Cc1ccc(F)cc1C(C)(C)CC(O)(Cc1cc(C(F)(F)F)cc(Cl)c1F)C(F)(F)F (stereo not drawn) [2-(3-Chloro-2-fluoro-5-trifluoromethylbenzyl)-1,1,1-trifluoro-4-(5-fluoro-2-methylphenyl)-4-methylpentan-2-ol]
COc1ccc(F)cc1C(C)(C)CC(O)(Cc1ccc(F)c(Cl)c1)C(F)(F)F (stereo not drawn) [2-(3-Chloro-4-fluorobenzyl)-1,1,1-trifluoro-4-(5-fluoro-2-methoxyphenyl)-4-methylpentan-2-ol]
CC(C)(CC(O)(Cc1cc(C(F)(F)F)cc(Cl)c1F)C(F)(F)F)c1cc(C#N)cc2c1OCC2 (stereo not drawn) [7-[3-(3-Chloro-2-fluoro-5-trifluoromethylbenzyl)-4,4,4-trifluoro-3-hydroxy-1,1-dimethylbutyl]-2,3-dihydrobenzofuran-5-carbonitrile]
COc1ccc(C(C)(C)CC(O)(Cc2ccc(C#N)cc2Cl)C(F)(F)F)cc1 (stereo not drawn) [3-Chloro-4-[2-hydroxy-4-(4-methoxyphenyl)-4-methyl-2-trifluoromethylpentyl]benzonitrile]
